Data on three compounds can be found in ChEMBL document CHEMBL1201862, “PubChem BioAssay data set” (2004).

A word on the IC50: it is the concentration that inhibits the measured activity by half.

Active and inactive are the calls of the source. Cut-off read from the data, not from the text of the source: actives have a measured IC50 and inactives only a lower limit.

Chain of Envelope glycoprotein gp160 (Q6QLK5 whole entry, the tested form may be a part): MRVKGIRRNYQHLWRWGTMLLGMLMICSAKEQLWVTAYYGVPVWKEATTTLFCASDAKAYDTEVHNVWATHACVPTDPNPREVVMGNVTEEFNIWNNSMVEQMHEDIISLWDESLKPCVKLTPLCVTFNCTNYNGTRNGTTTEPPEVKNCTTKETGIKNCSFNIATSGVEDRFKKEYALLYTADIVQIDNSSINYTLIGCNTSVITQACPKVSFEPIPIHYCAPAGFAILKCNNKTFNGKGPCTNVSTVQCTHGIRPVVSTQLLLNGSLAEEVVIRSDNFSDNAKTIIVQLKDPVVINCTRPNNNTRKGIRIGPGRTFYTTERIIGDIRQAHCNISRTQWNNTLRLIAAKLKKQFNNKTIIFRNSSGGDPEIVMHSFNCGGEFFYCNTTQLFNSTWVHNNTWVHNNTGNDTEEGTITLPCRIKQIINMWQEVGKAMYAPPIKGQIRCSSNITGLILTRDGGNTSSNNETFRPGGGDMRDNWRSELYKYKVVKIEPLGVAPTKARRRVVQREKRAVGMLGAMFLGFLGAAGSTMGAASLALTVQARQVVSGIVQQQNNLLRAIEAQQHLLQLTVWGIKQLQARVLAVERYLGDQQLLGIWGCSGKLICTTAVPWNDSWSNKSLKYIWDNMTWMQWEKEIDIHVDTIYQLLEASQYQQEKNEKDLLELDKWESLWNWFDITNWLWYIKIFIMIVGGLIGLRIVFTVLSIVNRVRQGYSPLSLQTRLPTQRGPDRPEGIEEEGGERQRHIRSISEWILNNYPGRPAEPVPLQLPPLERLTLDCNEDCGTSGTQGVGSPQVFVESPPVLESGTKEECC

The experiment has as its target Envelope glycoprotein gp160 (Human immunodeficiency virus 1, UniProt Q6QLK5). The experiment is described as follows: cell-free HIV fusion peptide-binding blockers – biochemical, uHTS, fluorescence dequenching, […] (AID 1986).
As for `Cc1ccc(-c2nc(SCC(=O)Nc3ccccc3OC(F)F)c3c(C)c(C(=O)O)sc3n2)cc1`, the half-maximal inhibitory concentration (IC50) was 15.1 µM (active). Consider `O=C(O)c1cccc(N/N=C/c2cc(Br)cc(Br)c2O)c1`, for which the half-inhibitory concentration (IC50) is 17.1 µM (active).

`C=CC#CC[N+]1(CC#Cc2ccccc2)CCOCC1`: the half-inhibitory concentration (IC50) is 22.5 µM (active).
